In ChEMBL document CHEMBL4725375, “Total synthesis and a systematic structure-activity relationship study of WAP-8294A2” (2020) one finds MIC data, which are given here for 22 compounds.

The test system of test [1] is Staphylococcus aureus. The experiment in a line: Antibacterial activity against Staphylococcus aureus ATCC 29213 by CLSI M07-A8 protocol based microdilution method. Format: functional. A general note: In broth dilution the organism is exposed to a series of concentrations in liquid medium.
Test [2] concerns Staphylococcus aureus. The test can be described thus: Antibacterial activity against methicillin-resistant Staphylococcus aureus SA86 by CLSI M07-A8 protocol based microdilution method. It counts as functional.

Each structure is given as a SMILES string. In brackets after ≈: the same amount, converted by molar mass.

For the compound `CC(C)CCC[C@@H]1CC(=O)N[C@@H](CO)C(=O)N[C@H](CC(N)=O)C(=O)N[C@@H](CO)C(=O)NCC(=O)N(C)[C@H](Cc2ccccc2)C(=O)N[C@@H](CC(C)C)C(=O)N[C@H](Cc2c[nH]cn2)C(=O)N[C@@H](CCC(=O)O)C(=O)N[C@H](CC(N)=O)C(=O)N[C@H](Cc2c[nH]c3ccccc23)C(=O)N[C@H](CCCN)C(=O)N(C)[C@@H](C(C)C)C(=O)O1`, the minimum inhibitory concentration (MIC) against Staphylococcus aureus [1] and against Staphylococcus aureus [2] was 2 µg/mL (≈ 1.27 µM) throughout.

Regarding `CC(C)CCC[C@@H]1CC(=O)N[C@@H](CO)C(=O)N[C@H](CC(N)=O)C(=O)N[C@@H](CO)C(=O)NCC(=O)N(C)[C@H](Cc2ccccc2)C(=O)N[C@@H](CC(C)C)C(=O)N[C@H](CCCN)C(=O)N[C@@H](CCC(=O)O)C(=O)N[C@H](CC(N)=O)C(=O)N[C@H](Cc2c[nH]c3ccccc23)C(=O)N[C@H](C)C(=O)N(C)[C@@H](C(C)C)C(=O)O1`, the minimal inhibitory concentration (MIC) against Staphylococcus aureus [1] and against Staphylococcus aureus [2] was ≥ 32 µg/mL each time.

For the compound `CC(C)CCC[C@@H]1CC(=O)N[C@@H](CO)C(=O)N[C@H](CC(N)=O)C(=O)N[C@@H](C)C(=O)NCC(=O)N(C)[C@H](Cc2ccccc2)C(=O)N[C@@H](CC(C)C)C(=O)N[C@H](CCCN)C(=O)N[C@@H](CCC(=O)O)C(=O)N[C@H](CC(N)=O)C(=O)N[C@H](Cc2c[nH]c3ccccc23)C(=O)N[C@H](CCCN)C(=O)N(C)[C@@H](C(C)C)C(=O)O1`, the MIC against Staphylococcus aureus [1] and in the test on Staphylococcus aureus [2] was 2 µg/mL (≈ 1.31 µM) each time.

For the compound `CC(C)CCC[C@@H]1CC(=O)N[C@@H](CO)C(=O)N[C@H](CC(N)=O)C(=O)N[C@@H](CO)C(=O)NCC(=O)N(C)[C@H](Cc2ccccc2)C(=O)N[C@@H](CC(C)C)C(=O)N[C@H](CCCN)C(=O)N[C@@H](CCC(=O)O)C(=O)N[C@H](CC(N)=O)C(=O)N[C@H](Cc2c[nH]c3ccccc23)C(=O)N[C@H](CCCN)C(=O)N(C)[C@@H](C(C)C)C(=O)O1`, the MIC against Staphylococcus aureus [1] and in the test on Staphylococcus aureus [2] was 1 µg/mL (≈ 0.647 µM) in each case.

For `CC(C)CCC[C@@H]1CC(=O)N[C@@H](CO)C(=O)N[C@H](CC(N)=O)C(=O)N[C@@H](CO)C(=O)NCC(=O)N(C)[C@H](Cc2ccccc2)C(=O)N[C@@H](CC(C)C)C(=O)N[C@H](CCCN)C(=O)N[C@@H](CCC(=O)O)C(=O)N[C@H](CC(N)=O)C(=O)N[C@H](C)C(=O)N[C@H](CCCN)C(=O)N(C)[C@@H](C(C)C)C(=O)O1`, the MIC with Staphylococcus aureus [1] and against Staphylococcus aureus [2] was ≥ 32 µg/mL throughout.

Turning to `CC(C)CCC[C@@H]1CC(=O)N[C@@H](CO)C(=O)N[C@H](CC(N)=O)C(=O)N[C@@H](CO)C(=O)N[C@@H](C)C(=O)N(C)[C@H](Cc2ccccc2)C(=O)N[C@@H](CC(C)C)C(=O)N[C@H](CCCN)C(=O)N[C@@H](CCC(=O)O)C(=O)N[C@H](CC(N)=O)C(=O)N[C@H](Cc2c[nH]c3ccccc23)C(=O)N[C@H](CCCN)C(=O)N(C)[C@@H](C(C)C)C(=O)O1`, the MIC in the test on Staphylococcus aureus [1] and against Staphylococcus aureus [2] was ≥ 32 µg/mL each time.

Take `CC(C)CCC[C@@H]1CC(=O)N[C@@H](CO)C(=O)N[C@H](CC(N)=O)C(=O)N[C@@H](CO)C(=O)NCC(=O)N(C)[C@H](Cc2ccccc2)C(=O)N[C@@H](CC(C)C)C(=O)N[C@H](CCCNC(=N)N)C(=O)N[C@@H](CCC(=O)O)C(=O)N[C@H](CC(N)=O)C(=O)N[C@H](Cc2c[nH]c3ccccc23)C(=O)N[C@H](CCCN)C(=O)N(C)[C@@H](C(C)C)C(=O)O1`: the MIC amounted to 1 µg/mL (≈ 0.629 µM) against Staphylococcus aureus [1] and 2 µg/mL (≈ 1.26 µM) against Staphylococcus aureus [2].

As to `CC(C)CCC[C@@H]1CC(=O)N[C@@H](CO)C(=O)N[C@H](CC(N)=O)C(=O)N[C@@H](CO)C(=O)NCC(=O)N[C@H](C)C(=O)N[C@@H](CC(C)C)C(=O)N[C@H](CCCN)C(=O)N[C@@H](CCC(=O)O)C(=O)N[C@H](CC(N)=O)C(=O)N[C@H](Cc2c[nH]c3ccccc23)C(=O)N[C@H](CCCN)C(=O)N(C)[C@@H](C(C)C)C(=O)O1`, the minimal inhibitory concentration (MIC) against Staphylococcus aureus [1] and with Staphylococcus aureus [2] was ≥ 32 µg/mL each time.

In the case of `CC(C)CCC[C@@H]1CC(=O)N[C@@H](CO)C(=O)N[C@H](CC(N)=O)C(=O)N[C@@H](CO)C(=O)NCC(=O)N(C)[C@H](Cc2ccccc2)C(=O)N[C@@H](CC(C)C)C(=O)N[C@H](CCCN)C(=O)N[C@@H](CCC(=O)O)C(=O)N[C@H](CC(N)=O)C(=O)N[C@H](Cc2c[nH]c3ccccc23)C(=O)N[C@H](CCCN)C(=O)N[C@@H](C(C)C)C(=O)O1`, the minimal inhibitory concentration (MIC) against Staphylococcus aureus [1] and against Staphylococcus aureus [2] was ≥ 32 µg/mL each time.

As for `CC(C)CCC[C@@H]1CC(=O)N[C@@H](CO)C(=O)N[C@H](CC(N)=O)C(=O)N[C@@H](CO)C(=O)NCC(=O)N(C)[C@H](Cc2ccccc2)C(=O)N[C@@H](CC(C)C)C(=O)N[C@H](CCCN)C(=O)N[C@@H](CCC(=O)O)C(=O)N[C@H](CC(N)=O)C(=O)N[C@H](Cc2c[nH]c3ccccc23)C(=O)N[C@H](Cc2c[nH]cn2)C(=O)N(C)[C@@H](C(C)C)C(=O)O1`, the minimal inhibitory concentration (MIC) in the test with Staphylococcus aureus [1] and against Staphylococcus aureus [2] was 2 µg/mL (≈ 1.27 µM) each time.

For the compound `CC(C)CCC[C@@H]1CC(=O)N[C@@H](CO)C(=O)N[C@H](CC(N)=O)C(=O)N[C@@H](CCCCN)C(=O)NCC(=O)N(C)[C@H](Cc2ccccc2)C(=O)N[C@@H](CC(C)C)C(=O)N[C@H](CCCN)C(=O)N[C@@H](CCC(=O)O)C(=O)N[C@H](CC(N)=O)C(=O)N[C@H](Cc2c[nH]c3ccccc23)C(=O)N[C@H](CCCN)C(=O)N(C)[C@@H](C(C)C)C(=O)O1`, the MIC was 4 µg/mL (≈ 2.52 µM) in the test with Staphylococcus aureus [1] and 2 µg/mL (≈ 1.26 µM) with Staphylococcus aureus [2].

As for `CC(C)CCC[C@@H]1CC(=O)N[C@@H](CO)C(=O)N[C@H]([C@@H](O)C(N)=O)C(=O)N[C@@H](CO)C(=O)NCC(=O)N(C)[C@H](Cc2ccccc2)C(=O)N[C@@H](CC(C)C)C(=O)N[C@H](CCCN)C(=O)N[C@@H](CCC(=O)O)C(=O)N[C@H](CC(N)=O)C(=O)N[C@H](Cc2c[nH]c3ccccc23)C(=O)N[C@H](CCCN)C(=O)N(C)[C@@H](C(C)C)C(=O)O1`, the minimal inhibitory concentration (MIC) against Staphylococcus aureus [1] and in the test with Staphylococcus aureus [2] was 1 µg/mL (≈ 0.64 µM) in each case.

`CC(C)CCC[C@@H]1CC(=O)N[C@@H](CO)C(=O)N[C@H](CC(N)=O)C(=O)N[C@@H](CO)C(=O)NCC(=O)N(C)[C@H](Cc2ccccc2)C(=O)N[C@@H](C)C(=O)N[C@H](CCCN)C(=O)N[C@@H](CCC(=O)O)C(=O)N[C@H](CC(N)=O)C(=O)N[C@H](Cc2c[nH]c3ccccc23)C(=O)N[C@H](CCCN)C(=O)N(C)[C@@H](C(C)C)C(=O)O1`: the MIC in the test with Staphylococcus aureus [1] and against Staphylococcus aureus [2] was ≥ 32 µg/mL each time.

Consider `CC(C)CCC[C@@H]1CC(=O)N[C@@H](CO)C(=O)N[C@H](CC(N)=O)C(=O)N[C@@H](CO)C(=O)NCC(=O)N(C)[C@H](Cc2ccccc2)C(=O)N[C@@H](CC(C)C)C(=O)N[C@H](CCCN)C(=O)N[C@@H](CCC(=O)O)C(=O)N[C@H](CC(N)=O)C(=O)N[C@H](Cc2ccccc2)C(=O)N[C@H](CCCN)C(=O)N(C)[C@@H](C(C)C)C(=O)O1`, for which the MIC in the test with Staphylococcus aureus [1] and with Staphylococcus aureus [2] was ≥ 32 µg/mL each time.

As for `CC(C)CCC[C@@H]1CC(=O)N[C@@H](CO)C(=O)N[C@H](CC(N)=O)C(=O)N[C@@H](CO)C(=O)NCC(=O)N(C)[C@H](Cc2ccccc2)C(=O)N[C@@H](CC(C)C)C(=O)N[C@H](CCCN)C(=O)N[C@@H](CCC(=O)O)C(=O)N[C@H](CC(N)=O)C(=O)N[C@H](Cc2ccc(O)cc2)C(=O)N[C@H](CCCN)C(=O)N(C)[C@@H](C(C)C)C(=O)O1`, the minimum inhibitory concentration (MIC) in the test on Staphylococcus aureus [1] and in the test on Staphylococcus aureus [2] was ≥ 32 µg/mL in each case.

In the case of `CC(C)CCC[C@@H]1CC(=O)N[C@@H](CO)C(=O)N[C@H](CC(N)=O)C(=O)N[C@@H](CO)C(=O)NCC(=O)N(C)[C@H](Cc2ccccc2)C(=O)N[C@@H](CC(C)C)C(=O)N[C@H](CCCN)C(=O)N[C@@H](CCC(=O)O)C(=O)N[C@H](CCCCN)C(=O)N[C@H](Cc2c[nH]c3ccccc23)C(=O)N[C@H](CCCN)C(=O)N(C)[C@@H](C(C)C)C(=O)O1`, the minimal inhibitory concentration (MIC) against Staphylococcus aureus [1] and in the test on Staphylococcus aureus [2] was 1 µg/mL (≈ 0.641 µM) throughout.

`CC(C)CCC[C@@H]1CC(=O)N[C@@H](CO)C(=O)N[C@H](CC(N)=O)C(=O)N[C@@H](CO)C(=O)NCC(=O)N(C)[C@H](Cc2ccccc2)C(=O)N[C@@H](CCCCN)C(=O)N[C@H](CCCN)C(=O)N[C@@H](CCC(=O)O)C(=O)N[C@H](CC(N)=O)C(=O)N[C@H](Cc2c[nH]c3ccccc23)C(=O)N[C@H](CCCN)C(=O)N(C)[C@@H](C(C)C)C(=O)O1`: the MIC in the test with Staphylococcus aureus [1] and in the test with Staphylococcus aureus [2] was ≥ 32 µg/mL in each case.

On to `CC(C)CCC[C@@H]1CC(=O)N[C@@H](CO)C(=O)N[C@H]([C@H](O)C(N)=O)C(=O)N[C@@H](CO)C(=O)NCC(=O)N(C)[C@H](Cc2ccccc2)C(=O)N[C@@H](CC(C)C)C(=O)N[C@H](CCCN)C(=O)N[C@@H](CCC(=O)O)C(=O)N[C@H](CC(N)=O)C(=O)N[C@H](Cc2c[nH]c3ccccc23)C(=O)N[C@H](CCCN)C(=O)N(C)[C@@H](C(C)C)C(=O)O1`, for which the MIC against Staphylococcus aureus [1] and with Staphylococcus aureus [2] was 1 µg/mL (≈ 0.64 µM) throughout.

As to `CC(C)CCC[C@@H]1CC(=O)N[C@@H](CO)C(=O)N[C@H](CC(N)=O)C(=O)N[C@@H](CO)C(=O)NCC(=O)N(C)[C@H](Cc2ccccc2)C(=O)N[C@@H](CC(C)C)C(=O)N[C@H](CCCN)C(=O)N[C@@H](CCC(=O)O)C(=O)N[C@H](CC(N)=O)C(=O)N[C@H](Cc2c[nH]c3ccccc23)C(=O)N[C@H](CCCCN)C(=O)N(C)[C@@H](C(C)C)C(=O)O1`, the minimum inhibitory concentration (MIC) was 1 µg/mL (≈ 0.641 µM) with Staphylococcus aureus [1] and 2 µg/mL (≈ 1.28 µM) against Staphylococcus aureus [2].

Take `CC(C)CCC[C@@H]1CC(=O)N[C@@H](C)C(=O)N[C@H](CC(N)=O)C(=O)N[C@@H](CO)C(=O)NCC(=O)N(C)[C@H](Cc2ccccc2)C(=O)N[C@@H](CC(C)C)C(=O)N[C@H](CCCN)C(=O)N[C@@H](CCC(=O)O)C(=O)N[C@H](CC(N)=O)C(=O)N[C@H](Cc2c[nH]c3ccccc23)C(=O)N[C@H](CCCN)C(=O)N(C)[C@@H](C(C)C)C(=O)O1`: the MIC with Staphylococcus aureus [1] and in the test with Staphylococcus aureus [2] was 2 µg/mL (≈ 1.31 µM) in each case.

In the case of `CC(C)CCC[C@@H]1CC(=O)N[C@@H](CO)C(=O)N[C@H](CC(N)=O)C(=O)N[C@@H](CO)C(=O)NCC(=O)N(C)[C@H](Cc2ccccc2)C(=O)N[C@@H](CC(C)C)C(=O)N[C@H](CCCN)C(=O)N[C@@H](CCC(=O)O)C(=O)N[C@H](C)C(=O)N[C@H](Cc2c[nH]c3ccccc23)C(=O)N[C@H](CCCN)C(=O)N(C)[C@@H](C(C)C)C(=O)O1`, the values for the MIC against Staphylococcus aureus [1] and against Staphylococcus aureus [2] were 2 µg/mL (≈ 1.33 µM) and 1 µg/mL (≈ 0.665 µM), respectively.

As to `CC(C)CCC[C@@H]1CC(=O)N[C@@H](CO)C(=O)N[C@H](CCCCN)C(=O)N[C@@H](CO)C(=O)NCC(=O)N(C)[C@H](Cc2ccccc2)C(=O)N[C@@H](CC(C)C)C(=O)N[C@H](CCCN)C(=O)N[C@@H](CCC(=O)O)C(=O)N[C@H](CC(N)=O)C(=O)N[C@H](Cc2c[nH]c3ccccc23)C(=O)N[C@H](CCCN)C(=O)N(C)[C@@H](C(C)C)C(=O)O1`, the results for the minimal inhibitory concentration (MIC) in the test on Staphylococcus aureus [1] and in the test on Staphylococcus aureus [2] were 2 µg/mL (≈ 1.28 µM) and 1 µg/mL (≈ 0.641 µM), respectively.

The MIC is the lowest concentration found to suppress growth.
